From article PMC6832920, “Synthesis, Docking Studies, and In Vitro Evaluation of Some Novel Thienopyridines and Fused Thienopyridine–Quinolines as Antibacterial Agents and DNA Gyrase Inhibitors” (Molecules, 2019)
≈ marks a conversion by molar mass, not a printed value.

Key:
Escherichia coli 8739 [1] = experiment: agar disc-diffusion antibacterial assay; type: cell-based; settings: E. coli 8739, disc loaded with 100 μg, 37 °C, 24 h, read-out: diameter of inhibition zone
Protocol: (§1) The clinical control strains of Gram-negative bacteria (Escherichia coli 8739, Salmonella typhimurium 14028, Pseudomonas aeruginosa 27853) and Gram-positive bacteria (Bacillus subtilis 6633, Bacillus cereus 33018, Staphylococcus aureus 25923), were obtained from microbial inoculums by subculturing microorganisms into nutrient broth (NB) at 37 °C for 18 h, and were adjusted to 0.125 A° at 625 nm (equivalent to a McFarland 0.5) in 2-fold NB. A 100 μL measure of NB containing each test microorganism was added to the sterile Petri dishes. Antibacterial testing was carried out on all compounds (3a,b–14) using the agar disc-diffusion method [40]. Sterile nutrients were inoculated with 100 μL cell suspension of the chosen test microorganism and poured into Petri dishes (20 cm diameter). Filter paper discs (Whatman, No.3, diameter 5 mm) were loaded with 10 μL containing 100 μg of the tested compounds, as well as the standard drug. Composite compound disks were placed on the surface of inoculated agar plates and kept at low temperatures before incubation in order to support the swelling and diffusion of the microbial growth. The plates were incubated at 37 °C in the incubator. Experiments were performed in duplicate and the diameters of inhibition zones were measured after 24 h. A diameter of inhibition zone (DIZ) assay was performed to evaluate the antimicrobial potential of the compounds against the tested organisms compared with reference antibiotics.

[2] = tested on: Salmonella typhimurium 14028; experiment: agar disc-diffusion antibacterial assay; type: cell-based; settings: Salmonella enterica; S. typhimurium 14028; disc loaded with 100 μg; 37 °C, 24 h; read-out: diameter of inhibition zone
Protocol: (§2) The clinical control strains of Gram-negative bacteria (Escherichia coli 8739, Salmonella typhimurium 14028, Pseudomonas aeruginosa 27853) and Gram-positive bacteria (Bacillus subtilis 6633, Bacillus cereus 33018, Staphylococcus aureus 25923), were obtained from microbial inoculums by subculturing microorganisms into nutrient broth (NB) at 37 °C for 18 h, and were adjusted to 0.125 A° at 625 nm (equivalent to a McFarland 0.5) in 2-fold NB. A 100 μL measure of NB containing each test microorganism was added to the sterile Petri dishes. Antibacterial testing was carried out on all compounds (3a,b–14) using the agar disc-diffusion method [40]. Sterile nutrients were inoculated with 100 μL cell suspension of the chosen test microorganism and poured into Petri dishes (20 cm diameter). Filter paper discs (Whatman, No.3, diameter 5 mm) were loaded with 10 μL containing 100 μg of the tested compounds, as well as the standard drug. Composite compound disks were placed on the surface of inoculated agar plates and kept at low temperatures before incubation in order to support the swelling and diffusion of the microbial growth. The plates were incubated at 37 °C in the incubator. Experiments were performed in duplicate and the diameters of inhibition zones were measured after 24 h.

[3] = tested on: Pseudomonas aeruginosa 27853; experiment: agar disc-diffusion antibacterial assay; type: cell-based; settings: P. aeruginosa 27853, disc loaded with 100 μg, 37 °C, 24 h, read-out: diameter of inhibition zone
Protocol: as §1

Bacillus subtilis 6633 [4] = experiment: agar disc-diffusion antibacterial assay; type: cell-based; settings: B. subtilis 6633, disc loaded with 100 μg, 37 °C, 24 h, read-out: diameter of inhibition zone
Protocol: (§3) A 100 μL measure of NB containing each test microorganism was added to the sterile Petri dishes. Antibacterial testing was carried out on all compounds (3a,b–14) using the agar disc-diffusion method [40]. Sterile nutrients were inoculated with 100 μL cell suspension of the chosen test microorganism and poured into Petri dishes (20 cm diameter). Filter paper discs (Whatman, No.3, diameter 5 mm) were loaded with 10 μL containing 100 μg of the tested compounds, as well as the standard drug. Composite compound disks were placed on the surface of inoculated agar plates and kept at low temperatures before incubation in order to support the swelling and diffusion of the microbial growth. The plates were incubated at 37 °C in the incubator. Experiments were performed in duplicate and the diameters of inhibition zones were measured after 24 h. A diameter of inhibition zone (DIZ) assay was performed to evaluate the antimicrobial potential of the compounds against the tested organisms compared with reference antibiotics.

Bacillus cereus 33018 [5] = experiment: agar disc-diffusion antibacterial assay; type: cell-based; settings: B. cereus 33018, disc loaded with 100 μg, 37 °C, 24 h, read-out: diameter of inhibition zone
Protocol: as §3

[6] = tested on: Staphylococcus aureus 25923; experiment: agar disc-diffusion antibacterial assay; type: cell-based; settings: S. aureus 25923, disc loaded with 100 μg, 37 °C, 24 h, read-out: diameter of inhibition zone
Protocol: as §1

Escherichia coli 8739 [7] = experiment: MIC determination by dilution procedure; type: cell-based; settings: E. coli 8739, dilutions 125-1.95 μg/mL, read-out: minimum inhibitory concentration (MIC)
[8] = tested on: Salmonella typhimurium 14028; experiment: MIC determination by dilution procedure; type: cell-based; settings: Salmonella enterica; S. typhimurium 14028; dilutions 125-1.95 μg/mL; read-out: minimum inhibitory concentration (MIC)
Protocol: as §2

[9] = tested on: Pseudomonas aeruginosa 27853; experiment: MIC determination by dilution procedure; type: cell-based; settings: dilutions 125-1.95 μg/mL; for MIC: Pseudomonas aeruginosa, 27853, P. aeruginosa 27853, read-out: minimum inhibitory concentration (MIC)
Bacillus subtilis 6633 [10] = experiment: MIC determination by dilution procedure; type: cell-based; settings: B. subtilis 6633, dilutions 125-1.95 μg/mL, read-out: minimum inhibitory concentration (MIC)
Protocol: as §3

Bacillus cereus 33018 [11] = experiment: MIC determination by dilution procedure; type: cell-based; settings: B. cereus 33018, dilutions 125-1.95 μg/mL, read-out: minimum inhibitory concentration (MIC)
Protocol: as §3

[12] = tested on: Staphylococcus aureus 25923; experiment: MIC determination by dilution procedure; type: cell-based; settings: dilutions 125-1.95 μg/mL; for MIC: Staphylococcus aureus, 25923, S. aureus 25923, read-out: minimum inhibitory concentration (MIC)
Protocol: as §3

DNA gyrase from E. coli = molecular target: T1, DNA gyrase from E. coli (Escherichia coli, UniProt P0AES6); experiment: Escherichia coli DNA gyrase supercoiling inhibition assay; type: biochemical
T1 construct: purchased TopoGEN

Row | Structure (SMILES) | MIC (Escherichia coli 8739 [7]) [µg/mL] | MIC [8] [µg/mL] | MIC [9] [µg/mL] | MIC (Bacillus subtilis 6633 [10]) [µg/mL] | MIC (Bacillus cereus 33018 [11]) [µg/mL] | MIC [12] [µg/mL] | melting point [°C] | minimum inhibitory concentration (MIC) ([9]; P. aeruginosa 27853) [µg/mL] | minimum inhibitory concentration (MIC) ([12]; S. aureus 25923) [µg/mL] | zone of inhibition at 100 µg/disc (Escherichia coli 8739 [1]) [mm] | zone of inhibition at 100 µg/disc [2] [mm] | zone of inhibition at 100 µg/disc [3] [mm] | zone of inhibition at 100 µg/disc (Bacillus subtilis 6633 [4]) [mm] | zone of inhibition at 100 µg/disc (Bacillus cereus 33018 [5]) [mm] | zone of inhibition at 100 µg/disc [6] [mm] | IC50 (DNA gyrase from E. coli) [µM]
1 | CC1(C)S[C@@H]2[C@H](NC(=O)[C@H](N)c3ccc(O)cc3)C(=O)N2[C@H]1C(=O)O [Amoxicillin, amoxicillin trihydrate, reference compound] | 15.6 | 15.6 | 15.6 | 15.6 | 15.6 | 15.6 | – | – | – | 20 | 21 | 18 | 17 | 19 | 19 | –
2 | COc1ccc(-c2cc(-c3ccco3)nc(SCC(N)=O)c2C#N)cc1 [Compound 2a, 2-((3-Cyano-6-(furan-2-yl)-4-(4-methoxyphenyl)pyridin-2-yl)thio)acetamide] | – | – | – | – | – | – | 246 | – | – | – | – | – | – | – | – | –
3 | N#Cc1c(-c2cccs2)cc(-c2ccco2)nc1SCC(N)=O [Compound 2b, 2-((3-Cyano-6-(furan-2-yl)-4-(thiophen-2-yl)pyridin-2-yl)thio)acetamide] | – | – | – | – | – | – | 242 | – | – | – | – | – | – | – | – | –
4 | NC(=O)c1sc2nc(-c3ccco3)cc(-c3cccs3)c2c1N=C1CCCCC1 [Compound 4b, 3-(Cyclohexylideneamino)-6-(furan-2-yl)-4-(thiophen-2-yl)thieno[2,3-b]pyridine-2-carboxamide] | 31.2 (≈ 74.1 µM) | 15.6 (≈ 37.1 µM) | – | 31.2 (≈ 74.1 µM) | – | 31.2 (≈ 74.1 µM) | 320 to 322 | – | – | 12 | 15 | – | 10 | – | 12 | –
5 | COc1ccc(-c2cc(-c3ccco3)nc3sc4c(N)c5c(nc4c23)CCCC5)cc1 [Compound 5a, 2-(Furan-2-yl)-4-(4-methoxyphenyl)-6,7,8,9-tetrahydropyrido[3′,2′:4,5]thieno[3,2-b]quinolin-10-amine] | 31.2 (≈ 73.1 µM) | – | 31.2 (≈ 73.1 µM) | 31.2 (≈ 73.1 µM) | 31.2 (≈ 73.1 µM) | – | 231 | – | – | 12 | – | 12 | 10 | 13 | – | –
6 | COc1ccc(-c2cc(-c3ccco3)nc3sc4c(NC(=O)CCl)c5c(nc4c23)CCCC5)cc1 [Compound 6a, 2-Chloro-N-(2-(furan-2-yl)-4-(4-methoxyphenyl)-6,7,8,9-tetrahydropyrido[3′,2′:4,5]thieno[3,2-b]quinolin-10-yl)acetamide] | 31.2 (≈ 62 µM) | – | 31.2 (≈ 62 µM) | 31.2 (≈ 62 µM) | 31.2 (≈ 62 µM) | 31.2 (≈ 62 µM) | 342 to 343 | – | – | 13 | – | 13 | 10 | 13 | 12 | 13.7 ± 0.65
7 | O=C(CCl)Nc1c2c(nc3c1sc1nc(-c4ccco4)cc(-c4cccs4)c13)CCCC2 [Compound 6b, 2-Chloro-N-(2-(furan-2-yl)-4-(thiophen-2-yl)-6,7,8,9-tetrahydropyrido[3′,2′:4,5]thieno[3,2-b]quinolin-10-yl)acetamide] | 15.6 (≈ 32.6 µM) | 31.2 (≈ 65.1 µM) | 31.2 (≈ 65.1 µM) | 15.6 (≈ 32.6 µM) | 15.6 (≈ 32.6 µM) | – | 338 | – | – | 16 | 12 | 12 | 15 | 15 | – | 5.95 ± 0.34
8 | NNCC(=O)Nc1c2c(nc3c1sc1nc(-c4ccco4)cc(-c4cccs4)c13)CCCC2 [Compound 7b, N-(2-(furan-2-yl)-4-(thiophen-2-yl)-6,7,8,9-tetrahydropyrido[3′,2′:4,5]thieno[3,2-b]quinolin-10-yl)-2-hydrazinylacetamide] | – | 31.2 (≈ 65.7 µM) | 31.2 (≈ 65.7 µM) | 62.5 (≈ 131 µM) | 31.2 (≈ 65.7 µM) | 31.2 (≈ 65.7 µM) | 306 | – | – | – | 10 | 12 | 8 | 11 | 10 | –
9 | COc1ccc(-c2cc(-c3ccco3)nc3sc4c(NC(=O)CNN=Cc5ccc(OC)c(OC)c5)c5c(nc4c23)CCCC5)cc1 [Compound 8a, 2-(2-(3,4-Dimethoxybenzylidene)hydrazinyl)-N-(2-(furan-2-yl)-4-(4-methoxyphenyl)-6,7,8,9-tetrahydropyrido[3′,2′:4,5]thieno[3,2-b]quinolin-10-yl)acetamide] | – | – | – | 31.2 (≈ 48.2 µM) | 31.2 (≈ 48.2 µM) | 31.2 (≈ 48.2 µM) | 187 | – | – | – | – | – | 11 | 9 | 11 | –
10 | COc1ccc(-c2cc(-c3ccco3)nc3sc4c(NC(=O)CNN=Cc5ccc(C)cc5)c5c(nc4c23)CCCC5)cc1 [Compound 8b, N-(2-(furan-2-yl)-4-(4-methoxyphenyl)-6,7,8,9-tetrahydropyrido[3′,2′:4,5]thieno[3,2-b]quinolin-10-yl)-2-(2-(4-methylbenzylidene)hydrazinyl)acetamide] | – | – | – | 31.2 (≈ 51.9 µM) | 62.5 (≈ 104 µM) | 62.5 (≈ 104 µM) | 122 | – | – | – | – | – | 9 | 9 | 8 | –

Continued, in another order:

Row | MIC (Escherichia coli 8739 [7]) [µg/mL] | MIC [8] [µg/mL] | MIC [9] [µg/mL] | MIC (Bacillus subtilis 6633 [10]) [µg/mL] | MIC (Bacillus cereus 33018 [11]) [µg/mL] | MIC [12] [µg/mL] | melting point [°C] | minimum inhibitory concentration (MIC) ([9]; P. aeruginosa 27853) [µg/mL] | minimum inhibitory concentration (MIC) ([12]; S. aureus 25923) [µg/mL] | Structure (SMILES) | zone of inhibition at 100 µg/disc (Escherichia coli 8739 [1]) [mm] | zone of inhibition at 100 µg/disc [2] [mm] | zone of inhibition at 100 µg/disc [3] [mm] | zone of inhibition at 100 µg/disc (Bacillus subtilis 6633 [4]) [mm] | zone of inhibition at 100 µg/disc (Bacillus cereus 33018 [5]) [mm] | zone of inhibition at 100 µg/disc [6] [mm] | IC50 (DNA gyrase from E. coli) [µM]
11 | 15.6 (≈ 28.2 µM) | 15.6 (≈ 28.2 µM) | 15.6 (≈ 28.2 µM) | 15.6 (≈ 28.2 µM) | 15.6 (≈ 28.2 µM) | 15.6 (≈ 28.2 µM) | 143 | 31.25 (≈ 56.3 µM) | 31.25 (≈ 56.3 µM) | COc1ccc(-c2cc(-c3ccco3)nc3sc4c(NC(=O)CN5CCOCC5)c5c(nc4c23)CCCC5)cc1 [Compound 9a, N-(2-(furan-2-yl)-4-(4-methoxyphenyl)-6,7,8,9-tetrahydropyrido[3′,2′:4,5]thieno[3,2-b]quinolin-10-yl)-2-morpholinoacetamide] | – | – | 11 | 14 | 16 | 12 | –
12 | – | – | – | 62.5 (≈ 110 µM) | 62.5 (≈ 110 µM) | 31.2 (≈ 55 µM) | 303 to 304 | – | – | COc1ccc(-c2cc(-c3ccco3)nc3sc4c(NS(=O)(=O)c5ccccc5)c5c(nc4c23)CCCC5)cc1 [Compound 10, N-(2-(Furan-2-yl)-4-(4-methoxyphenyl)-6,7,8,9-tetrahydropyrido[3′,2′:4,5]thieno [3,2-b]quinolin-10-yl)benzenesulfonamide] | – | – | – | 8 | 9 | 9 | –
13 | – | – | – | 31.2 (≈ 57.2 µM) | 62.5 (≈ 114 µM) | 62.5 (≈ 114 µM) | 118 to 120 | – | – | COc1ccc(-c2cc(-c3ccco3)nc3sc4c(NC(=O)Nc5ccccc5)c5c(nc4c23)CCCC5)cc1 [Compound 11, 1-(2-(Furan-2-yl)-4-(4-methoxyphenyl)-6,7,8,9-tetrahydropyrido[3′,2′:4,5]thieno [3,2-b]quinolin-10-yl)-3-phenylurea] | – | – | – | 9 | 8 | 8 | –
14 | 31.2 (≈ 55.9 µM) | 62.5 (≈ 112 µM) | 62.5 (≈ 112 µM) | 31.2 (≈ 55.9 µM) | 31.2 (≈ 55.9 µM) | 31.2 (≈ 55.9 µM) | 149 | – | – | COc1ccc(-c2cc(-c3ccco3)nc3sc4c(N=Cc5ccc(N(C)C)cc5)c5c(nc4c23)CCCC5)cc1 [Compound 12a, 4-(((2-(furan-2-yl)-4-(4-methoxyphenyl)-6,7,8,9-tetrahydropyrido[3′,2′:4,5]thieno[3,2-b]quinolin-10-yl)imino)methyl)-N,N-dimethylaniline] | 11 | 8 | 9 | 13 | 11 | 10 | –
15 | 62.5 (≈ 128 µM) | 62.5 (≈ 128 µM) | 31.2 (≈ 64.1 µM) | 15.6 (≈ 32.1 µM) | 15.6 (≈ 32.1 µM) | 31.2 (≈ 64.1 µM) | 217 to 218 | – | – | CC(=O)CC(=O)Nc1c2c(nc3c1sc1nc(-c4ccco4)cc(-c4cccs4)c13)CCCC2 [Compound 13, N-(2-(furan-2-yl)-4-(thiophen-2-yl)-6,7,8,9-tetrahydropyrido[3′,2′:4,5]thieno[3,2-b]quinolin-10-yl)-3-oxobutanamide] | 8 | 7 | 11 | 15 | 16 | 12 | –
